{"source": "paper PMC9305623", "about": "“Next generation GLP-1/GIP/glucagon triple agonists normalize body weight in obese mice” (Molecular Metabolism, 2022)", "key": {"DIO mice": {"test_system": "DIO mice", "assay": "Pharmacodynamics in DIO mice: body weight, food intake, body composition", "assay_type": "in vivo, mouse (male C57BL/6J)", "protocol": "Studies were approved by and performed according to the guidelines of the Institutional Animal Care and Use Committee of the University of Cincinnati. Male C57BL/6J mice (Jackson Laboratories) were housed 4 per cage, exposed to a controlled 12 h/12 h light–dark cycle at room temperature (22 °C), and provided ab libitum access to water and a 58% fat, high-sugar diet (D12331, Research Diets) for 12 weeks. Mice exceeding 50 g of body weight were considered diet-induced obese (DIO) and included in studies, where they were randomized and evenly distributed to test groups (n = 8 per group) according to body weight. Test compounds dissolved at a concentration of 0.5–2 μM in a vehicle (pH 7.4) containing 0.05% polysorbate-80, 50 mM sodium phosphate, and 70 mM sodium chloride were administered subcutaneously once daily, unless otherwise noted, during the light cycle for each day of treatment at a volume of 2–5 μL per gram of body weight as necessary to achieve the desired dose. Body weight and food intake were measured immediately prior to dosing each day. The percent change in body was calculated individually for each mouse based on initial body weight prior to the first injection. For intraperitoneal (i.p.) glucose tolerance tests (IPGTT), animals were fasted for 6 h prior to the test but had access to water. Fasted blood glucose levels were measured, then mice were injected with an i.p. glucose load of 2 g/kg from a 200 mg/mL aqueous glucose solution. Tail blood glucose levels were measured 0, 15, 30, 60, 90, and 120 min following the glucose load using a handheld glucometer (Freestyle, Abbott)."}, "in vivo": {"assay": "in vivo", "parameters": "species or system Göttingen minipigs", "conditions": "female, Göttingen, minipig, iv, 2 nmol/kg", "protocol": "Studies were conducted in accordance with the Protection of Animals Act, the Act on Experiments on Animals, and the Standard Operating Procedures for Experiments on Animals at Novo Nordisk A/S. The experiments were performed under the supervision and approval of the Danish Government Animal Experiments Inspectorate and the Novo Nordisk Ethical Review Counsel. Female Göttingen minipigs (Ellegaard Göttingen Minipigs A/S), 7–14 months old and weighing 16–35 kg, were housed individually and fed once daily with a restricted SDS minipig diet (Special Diets Services). At least one week before the study, two permanent central venous catheters were implanted in the caudal vena cava of each animal. The animals were fasted for approximately 18 h before dosing and 4 h after dosing but had ad libitum access to water during the whole period. Test compounds dissolved to a concentration of 20–40 nmol/mL in a vehicle (pH 7.4) containing 0.025% polysorbate-20, 10 mM sodium phosphate, and 250 mM glycerol were administered via an intravenous injection through one catheter at a dose of 2 nmol/kg. Blood samples were collected in 8 mM aqueous EDTA for up to 14 days post dosing, preferably through the other catheter, then centrifuged at 4 °C and ∼2000g for 10 min. Plasma was isolated and immediately frozen until RP-HPLC/MS analysis. Individual plasma concentration–time profiles were analysed by a non-compartmental model in Phoenix WinNonLin software (Pharsight Inc.), and the resulting terminal half-lives were determined at the harmonic mean."}}, "note": "*1 amine or outer side, *2 acyl side, *3 side chain or, on linkers, in order; H or OH if unused. Where a SMILES comes first, the peptide text is derived from it. Side-chain parts run from the residue outwards. [ ]: non-standard residue; d: D form. The star is where a group is joined. C20 diacid = O=C(O)CCCCCCCCCCCCCCCCCCC(=O)*; γGlu = O=C(O)[C@H](CCC(=O)[*:2])N[*:1]; εLys = N[C@@H](CCCCN[*:1])C(=O)[*:2]; Aib = CC(C)(N)C(=O)O", "data": [{"smiles": "CC[C@H](C)[C@H](NC(=O)[C@H](CO)NC(=O)[C@H](Cc1ccc(O)cc1)NC(=O)[C@H](CC(=O)O)NC(=O)[C@H](CO)NC(=O)[C@@H](NC(=O)[C@H](Cc1ccccc1)NC(=O)[C@@H](NC(=O)CNC(=O)[C@H](Cc1c[nH]cn1)NC(=O)C(C)(C)NC(=O)[C@@H](N)Cc1c[nH]cn1)[C@@H](C)O)[C@@H](C)O)C(=O)N[C@@H](Cc1ccc(O)cc1)C(=O)N[C@@H](CC(C)C)C(=O)N[C@@H](CCC(=O)O)C(=O)N[C@@H](CCCCNC(=O)[C@@H](N)CCCCNC(=O)[C@@H](N)CCCCNC(=O)CC[C@H](NC(=O)CCCCCCCCCCCCCCCCCCC(=O)O)C(=O)O)C(=O)N[C@@H](CCCCN)C(=O)N[C@@H](Cc1ccc(O)cc1)C(=O)N[C@@H](C)C(=O)NC(C)(C)C(=O)N[C@@H](CCC(=O)O)C(=O)N[C@@H](Cc1ccccc1)C(=O)N[C@H](C(=O)N[C@@H](CCC(N)=O)C(=O)N[C@@H](Cc1c[nH]c2ccccc12)C(=O)N[C@@H](CC(C)C)C(=O)N[C@@H](CC(C)C)C(=O)N[C@@H](CCC(=O)O)C(=O)NCC(=O)NCC(=O)N1CCC[C@H]1C(=O)N[C@@H](CO)C(=O)N[C@@H](CO)C(=O)NCC(=O)N[C@@H](C)C(=O)N1CCC[C@H]1C(=O)N1CCC[C@H]1C(=O)N1CCC[C@H]1C(=O)N[C@@H](CO)C(N)=O)C(C)C", "note": "[Compound 16] (H-H[Aib]HGTFTSDYSIYLEK([εLys-εLys-γGlu-C20 diacid])KYA[Aib]EFVQWLLEGGPSSGAPPPS-NH2)", "values": [{"measurement": "body weight loss at high dose versus first generation triagonist and SAR441255", "setting": "DIO mice; 2 nmol/kg", "value": "significantly superior body weight loss"}, {"measurement": "weight lowering efficacy versus tirzepatide", "setting": "DIO mice; 3 nmol/kg daily and dose-escalated (1 to 30 nmol/kg) groups, s.c.", "value": "significantly more weight lowering efficacy"}, {"measurement": "Body weight reductions", "setting": "DIO mice; 3 nmol/kg daily dose s.c., after 2 weeks of treatment", "value": "greater than 30%"}, {"measurement": "origin of weight loss (fat mass vs lean mass)", "setting": "DIO mice; 1 or 2 nmol/kg", "value": "predominantly derived from a reduction in fat mass, not lean mass"}, {"measurement": "animals achieving body weight normalization (average weight of lean litter mates, 22.5 g)", "setting": "DIO mice; n = 8 per group, up-titrated from 1 to 10 nmol/kg over 24 days, then 10 nmol/kg for up to 18 days", "value": "Five of the eight"}, {"measurement": "body weight loss in animals achieving body weight normalization", "setting": "DIO mice; s.c. once daily, up-titrated from 1 to 10 nmol/kg over 24 days, then 10 nmol/kg for up to 18 days", "value": "55–60%"}, {"measurement": "Vd", "setting": "in vivo", "value": 0.164, "unit": "L/kg"}, {"measurement": "clearance", "setting": "in vivo", "value": 1.5, "unit": "mL/h/kg"}, {"measurement": "half-life", "setting": "in vivo", "value": 75, "unit": "h"}]}]}
